According to patent US4581172A, “Substituted pyrimido[6,1-a]isoquinolin-4-ones,pyrimido[6,1-a]benzozepin-4-ones and pyrimido[6,1-a]benzodiazepin-4-ones useful for prevention of thromboses and treating hypertension” (Hoffmann-La Roche Inc., priority 1983, dated 1986):

Columns and labels:
[1] = system: Human platelet-rich plasma; assay: Inhibition of collagen-initiated platelet aggregation (aggregometer method); type: cell-based; details: 10 min, human citrate plasma, 10 minutes at 37° C., aggregation initiated by collagen fibrils, hydrochlorides of the products tested, read-out: EC50 (maximum aggregation velocity)
Method: The maximum aggregation velocity was taken as the test parameter and the effective concentration (EC50) was ascertained from dosage-activity curves. Human platelet-rich plasma was obtained by centrifugation from citrated venous blood. The experiments were carried out with suspensions of the test substances in 0.9% sodium chloride. 0.18 ml of citrate plasma was treated with a 10 μl suspension of the test compounds and the mixture was incubated at 37° C. for 10 minutes, whereupon the aggregation was initiated by the addition of 10 μl of a suspension of collagen fibrils. The following EC50 values (in μM) were ascertained for the hydrochlorides of the products of certain Examples hereinafter: […]

[2] = Acute toxicity (LD50) p.o. in mice; details: mouse, in vivo, po, hydrochloride

Row | Structure (SMILES) | EC50 [1] | LD50 [2]
1 | COc1cc2c(cc1OC)-c1cc(=Nc3c(C)cc(C)cc3C)n(C)c(=O)n1CCC2 [5(a), 10,11-dimethoxy-2-mesitylimino-3-methyl-2,3,7,8-tetrahydro-4H,6H-pyrimido[6,1-a]benzazepin-4-one] | 120 nM | 
2 | COc1cc2c(cc1OC)C(C)Cn1c-2cc(=Nc2ccccc2C)n(C)c1=O (centres unmarked) [6a) 2.] |  | 2500 mg/kg
3 | COc1cc2c(cc1OC)C(C)Cn1c-2cc(=Nc2c(C)cc(C)cc2C)n(C)c1=O (centres unmarked) [Example 3, 9,10-dimethoxy-3,7-dimethyl-2-mesitylimino-2,3,6,7-tetrahydro-4H-pyrimido[6,1-a]isoquinolin-4-one] | 600 nM | 

Second part, led by results:

Row | EC50 [1] | Structure (SMILES) | LD50 [2]
4 | 100 nM | COc1cc2c(cc1OC)-c1cc(=Nc3c(C)cc(C)cc3C)n(C)c(=O)n1C(C)C2 (centres unmarked) [4(a), 9,10-dimethoxy-3,6-dimethyl-2-mesitylimino-2,3,6,7-tetrahydro-4H-pyrimido[6,1-a]isoquinolin-4-one] | 
5 | 110 nM | COc1cc2c(cc1OC)-c1cc(Nc3c(C)cc(C)cc3C)nc(=O)n1C(C)C2 (centres unmarked) [Example 2(a), 6,7-dihydro-9,10-dimethoxy-2-mesitylamino-6-methyl-4H-pyrimido[6,1-a]isoquinolin-4-one] | 
